Laboratory results published in patent US7442791B2, “Aminoalkylamide substituted cyclohexyl derivatives” (Hoffmann-La Roche Inc., priority 2003, dated 2008).
Like-named read-outs stand apart in the source and are kept apart here.

Assays:
[1] = target: T1, Human Liver Microsomal 2,3-oxidosqualene-lanosterol Cyclase (OSC) (Homo sapiens, UniProt P48449); assay: Inhibition of human liver microsomal 2,3-oxidosqualene-lanosterol cyclase (OSC); assay type: biochemical; details: read-out: percentage OSC inhibition against controls
T1 construct: Liver microsomes from a healthy volunteer were prepared in sodium phosphate buffer (pH 7.4); from tissue; host or cells: human liver microsomes (healthy volunteer)
T1 sequence (P48449 1-732): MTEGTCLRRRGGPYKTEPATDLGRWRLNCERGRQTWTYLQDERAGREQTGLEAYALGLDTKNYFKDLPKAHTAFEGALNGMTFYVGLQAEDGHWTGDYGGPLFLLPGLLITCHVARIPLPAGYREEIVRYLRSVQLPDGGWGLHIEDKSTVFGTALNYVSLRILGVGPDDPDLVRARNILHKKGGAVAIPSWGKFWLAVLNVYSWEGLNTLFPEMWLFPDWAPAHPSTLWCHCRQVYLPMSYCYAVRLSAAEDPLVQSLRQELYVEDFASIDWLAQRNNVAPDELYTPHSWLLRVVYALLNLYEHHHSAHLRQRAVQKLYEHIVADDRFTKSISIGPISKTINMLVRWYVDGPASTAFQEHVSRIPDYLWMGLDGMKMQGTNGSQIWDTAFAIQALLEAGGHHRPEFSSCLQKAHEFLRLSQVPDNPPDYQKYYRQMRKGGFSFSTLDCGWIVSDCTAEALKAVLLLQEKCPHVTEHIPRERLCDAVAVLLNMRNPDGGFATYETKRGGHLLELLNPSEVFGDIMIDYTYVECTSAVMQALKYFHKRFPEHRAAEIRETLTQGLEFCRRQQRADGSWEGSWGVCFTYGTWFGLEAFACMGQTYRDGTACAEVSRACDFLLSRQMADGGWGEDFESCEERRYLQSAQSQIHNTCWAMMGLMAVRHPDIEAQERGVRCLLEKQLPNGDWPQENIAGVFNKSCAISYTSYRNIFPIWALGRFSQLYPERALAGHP
Experimental: Inhibition of Human Liver Microsomal 2,3-oxidosqualene-lanosterol Cyclase (OSC)
Liver microsomes from a healthy volunteer were prepared in sodium phosphate buffer (pH 7.4). The OSC activity was measured in the same buffer, which also contained 1 mM EDTA and 1 mM dithiothreitol. The microsomes were diluted to 0.8 mg/ml protein in cold phosphate buffer. Dry [^14C]R,S-monooxidosqualene (MOS, 12.8 mCi/mmol) was diluted to 20 nCi/μl with ethanol and mixed with phosphate buffer-1% BSA (bovine serum albumin). A stock solution of 1 mM test substance in DMSO was diluted to the desired concentration with phosphate buffer-1% BSA. 40 μl of microsomes were mixed with 20 μl of the solution of the test substance and the reaction was subsequently started with 20 μl of the [^14C]R,S-MOS solution. The final conditions were 0.4 mg/ml of microsomal proteins and […] of [^14C]R,S-MOS in phosphate buffer, pH 7.4, containing 0.5% albumin, DMSO<0.1% and ethanol<2%, in a total volume of 80 μl.
After 1 hour at 37° C. the reaction was stopped by the addition of 0.6 ml of 10% KOH-methanol, 0.7ml of water and 0.1 ml of hexane:ether (1:1, v/v) which contained 25 μg of non-radioactive MOS and 25 μg of lanosterol as carriers. After shaking, 1 ml of hexane:ether (1:1, v/v) was added to each test tube, these were again shaken and then centrifuged. The upper phase was transferred into a glass test tube, the lower phase was again extracted with hexane:ether and combined with the first extract. The entire extract was evaporated to dryness with nitrogen, the residue was suspended in 50 μl of hexane:ether and applied to a silica gel plate. Chromatographic separation was effected in hexane:ether (1:1, v/v) as the eluent. The Rf values for the MOS substrate and the lanosterol product were 0.91 and, respectively, 0.54. After drying, radioactive MOS and lanosterol were observed on the silica gel plate. The ratio of MOS to lanosterol was determined from the radioactive bands in order to determine the yield of the reaction and OSC inhibition.
The test was carried out on the one hand with a constant test substance concentration of 100 nM and the percentage OSC inhibition against controls was calculated.
In addition, the test was carried out with different test substance concentrations and subsequently the IC50 value was calculated, i.e. the concentration required to reduce the conversion of MOS into lanosterol to 50% of the control value.

[2] = constant test substance concentration of 100 nM, human liver microsomes, [14C]R,S-MOS, 1 hour at 37° C.

| SMILES | inhibition at 0.1 µM [1, 2] | also measured |
| --- | --- | --- |
| CN(C)CCN(C)C(=O)[C@H]1CC[C@H](N(C)S(=O)(=O)c2ccc(C(F)(F)F)cc2)CC1 [Example 4.4, trans-4-[methyl-(4-trifluoromethyl-benzenesulfonyl)-amino]-cyclohexanecarboxylic acid (2-dimethylamino-ethyl)-methyl-amide] | – | melting point: 83 °C |
| CN(C)CCN(C)C(=O)[C@H]1CC[C@H](CN(C)C(=O)Oc2ccc(Cl)cc2)CC1 [Example 5.4, trans-{4-[(2-dimethylamino-ethyl)-methyl-carbamoyl]-cyclohexylmethyl}-methyl-carbamic acid 4-chloro-phenyl ester] | – | inhibition at 0.1 µM [1]: 51% |
| CN(C)CCN(C)C(=O)CC[C@H]1CC[C@H](CN(C)S(=O)(=O)c2ccc(C(F)(F)F)cc2)CC1 [Example 22.6, trans-N-(2-dimethylamino-ethyl)-N-methyl-3-(4-{[methyl-(4-trifluoromethyl-benzenesulfonyl)-amino]-methyl}-cyclohexyl)-propionamide] | 56% | – |

Second part, led by results:

| inhibition at 0.1 µM [1, 2] | SMILES | also measured |
| --- | --- | --- |
| 61% | CN(C)CCN(C)C(=O)CCO[C@H]1CC[C@H](N(C)S(=O)(=O)c2ccc(C(F)(F)F)cc2)CC1 [Example 1.6, trans-N-(2-dimethylamino-ethyl)-N-methyl-3-{4-[methyl-(4-trifluoromethyl-benzenesulfonyl)-amino]-cyclohexyloxy}-propionamide] | – |
| 65% | CCN(CCO)CCN(C)C(=O)[C@H]1CC[C@H](CCN(C)c2ncc(Br)cn2)CC1 [Example 15.4, trans-4-{2-[(5-bromo-pyrimidin-2-yl)-methyl-amino]-ethyl}-cyclohexanecarboxylic acid {2-[ethyl-(2-hydroxy-ethyl)-amino]-ethyl}-methyl-amide] | – |
